We go through 1 compound from PubChem BioAssay AID504875 (The Scripps Research Institute Molecular Screening Center, 2011).

The experiment relates to cell viability, ATP luminescence (cytotoxicity counter-screen). Kind of experiment: cytotoxicity of S1P4 agonist candidates, late-stage follow-up, cytotoxicity control for S1P4 agonist project, cell-based, luminescence, dose response, set 2, assay provider (AID 504875).

Activity calls are given as the source filed them. How the calls were made is not given here.

As to `COCCN=C1S/C(=C\c2cc(C)n(-c3ccc(F)cc3F)c2C)C(=O)N1C`, the CC50 (usually the concentration at which the toxic effect on the cells reaches its halfway point) is > 10 µM (inactive).
